In patent US8765720B2, “Combination therapy for the treatment of multiple myeloma” (Cephalon, Inc., priority 2009, dated 2014):

Assays:
[1] = test system: LAGκ-1A tumor; test: Intramuscular LAGκ-1A tumor xenograft model (serum hIgG, tumor volume); conditions: alone or together
Procedure: (§1) Six- to 8-week-old male severe combined immunodeficient (SCID) mice were obtained from the Jackson Laboratory (Bar Harbor, Me.) and maintained in a specific pathogen-free area in our animal resources facility. All animal studies were conducted according to protocols approved by the Institutional Animal Care and Use Committee. Animals were anesthetized with ketamine, xylazine, and isoflurane prior to surgery and were euthanized when tumors reached 2 cm in diameter.
(§2) Biopsy tissue was surgically implanted in the hind limbs of anesthetized SCID mice and passaged through succeeding generations (32).
(§3) Myeloma tumors (LAGκ-1A or LAGκ-1B) were excised from an anesthetized donor mouse, sectioned into 20 to 40 mm^3 pieces, and surgically implanted into the left superficial gluteal muscle of anesthetized naive SCID mice. Recipient mice received weekly injections of anti-asialo GM1 rabbit serum (Wako Bioproducts, Richmond, Va.) to further suppress immune activity. Mice were blindly assigned to one of the experimental groups, and treatment was initiated 7 to 21 days after tumor implantation. COMPOUND 1 was administered via oral gavage daily (0.5-5.0 mg/kg) or twice weekly (5-10 mg/kg). COMPOUND 1 was also administered twice weekly (W, F) via either IV injection (0.5-3.0 mg/kg) or oral gavage (10 mg/kg), as specified. Melphalan (1 mg/kg) was provided via weekly intraperitoneal (IP) injections (W). Bortezomib (0.5 mg/kg) was dispensed twice weekly (T, Th) via IV injection. Control treatment consisted of COMPOUND 1 diluent (3.2 mL 5% mannitol and 800 μL propylene glycol) alone.
Mice bearing MM tumors underwent weekly retro-orbital bleeds. Resulting samples were spun at 13,000 rpm for 30 minutes to isolate serum. The hIgG ELISA kit (Bethyl Laboratories, Montgomery, Tex.) was used according to the manufacturer's specifications. Absorbance at 450 nm with a reference wavelength of 550 nm was determined on a μQuant microplate spectrophotometer with KC Junior software (Bio-Tek Instruments, Winooski, Vt.). Data graphed are the mean±SEM with n=7-8 mice/group.
(§4) As a direct measurement of tumor growth, calipers were used to assess tumor volume weekly, and the formula for an ellipsoid volume was applied ( 4/3π×[width/2]^2×[length/2]).
(§5) Percent inhibition of tumor growth is represented as the tumor volume of the test drug group over the tumor volume of the untreated group (T/C). The optimal value is the minimal T/C ratio that reflects the maximal tumor growth inhibition achieved. The criterion for efficacy for the T/C ratio is ≦42%, according to National Cancer Institute (NCI) standard criteria (44).
(§6) Efficacy of drug therapy against tumors was standardized to the time (t) required for the untreated tumor to grow to a determined size based on the greatest difference in time to reach a tumor volume between the control and treatment group. This value can be represented as the growth delay (in days) between treated and control (tt−tc) (44).
(§7) Tumor growth and hIgG levels were analyzed in terms of treatment group means and standard error. Student's t-test was applied to determine the statistical significance of differences between treatment groups. Minimal significance level was P<0.05.

[2] = test system: RPMI8226 cells; test: Cell viability assay (MTS assay), RPMI8226 cells; format: cell-based, human; conditions: Homo sapiens, RPMI-8226, 48 h, read-out: decrease in cell viability
Procedure: Combination indices (CIs) were calculated separately for each combination. […] CIs between 0.9 and 1.1 were considered to indicate additive drug effects (31).

[3] = test system: LAGκ-1B tumor; test: Intramuscular LAGκ-1B tumor xenograft model (tumor volume)
Procedure: as §1, §2
as §3, with “Melphalan (1 mg/kg) was provided via weekly intraperitoneal (IP) injections (W).” left out
as §4, §5, §6, §7

[4] = in vitro; conditions: human
Source text: The human myeloma cell line RPMI8226 was obtained from American Type Culture Collection (Rockville, Md.). The MM1S myeloma cell line was provided by Dr. Steven Rosen (Northwestern University, Chicago, Ill.). Normal peripheral blood mononuclear cells (PBMCs) were isolated by Histopaque® density gradient centrifugation, according to the manufacturer's protocol (Sigma-Aldrich, St. Louis, Mo.). Myeloma cell lines and PBMCs were maintained in RPMI 1640 (Omega Scientific, Tarzana, Calif.) supplemented with 10% fetal bovine serum, 2 mM L-glutamine, 100 IU/mL penicillin, 100 μg/mL streptomycin, and essential amino acids in an atmosphere of 5% carbon dioxide (CO2) at 37° C.
Cells were seeded at 10^5 cells/100 μL/well in 96-well plates and incubated for 24 hours. RPMI8226 and MM1S cells were cultured in the presence of vehicle, COMPOUND 1, bortezomib, melphalan, COMPOUND 1+bortezomib, or COMPOUND 1+melphalan for 48 hours. After the incubation period, cell viability was quantified using the CellTiter 96® AQueous Non-Radioactive Cell Proliferation Assay (Promega, Madison, Wis.). Each well was treated with MTS (3-(4,5-dimethylthiazol-2-yl)-5-(3-carboxymethoxyphenyl)-2-(4-sulfophenyl)-2H-tetrazolium, inner salt) for 1 to 4 hours, after which absorbance was recorded at 490 nm. The quantity of formazan product as measured by absorbance at 490 nm is directly proportional to the number of living cells in culture.
In order for therapy with two or more PIs to be feasible in vivo, the combination must spare non-neoplastic cells. […] A healthy donor's PBMCs were cultured for 48 hours in the presence of COMPOUND 1 alone, bortezomib alone, or both agents together, and cell viability was quantified by MTS assay.

[5] = test system: MM1S cells; test: Cell viability assay (MTS assay), MM1S cells; format: cell-based, human; conditions: Homo sapiens, MM1.S, single-agent bortezomib 0.5 nM, 48 hours, read-out: inhibition of cell viability
Procedure: In vitro synergy between COMPOUND 1 and bortezomib or melphalan was assessed using the median effect method of Chou and Talalay (30). Combination indices (CIs) were calculated separately for each combination. […] CIs between 0.9 and 1.1 were considered to indicate additive drug effects (31).

[6] = test system: RPMI8226 cells; test: Apoptotic assay by annexin V and propidium iodide staining; format: cell-based, human; conditions: 2.5 nM for each drug, 30 hours
Procedure: To quantify apoptosis in response to drug treatment, RPMI8226 cells (5×10^5 cells per well) were incubated with vehicle or PIs at 37° C. and 5% CO2 for 30 hours. As a positive control, cells were incubated with 250 ng/mL of actinomycin D for 24 or 48 hours. Cells were then washed twice with phosphate-buffered saline, resuspended in binding buffer (100 mM HEPES/NaOH, pH 7.5 containing 1.4 M NaCl and 25 mM CaCl2), and stained with fluorescein isothiocyanate (FITC)-conjugated annexin V and with the fluorescent dye propidium iodide (PrI), according to the manufacturer's protocol (BioVision, Mountain View, Calif.). For each drug treatment, 1×10^5 gated events were recorded. Cells negative for both PI and annexin V staining were considered live; annexin V-positive, PrI-negative cells were considered early apoptotic; annexin V-positive, PrI-positive cells were considered late apoptotic. Flow cytometric analyses were performed using a Beckman Coulter FC500 cytometer with Cytomics CXP software (Beckman Coulter, Fullerton, Calif.).

[7] = test system: CD138-negative MM cells; conditions: single agent; cited from earlier work
[8] = test system: apoptosis-inducing factor (AIF); test: Immunohistochemical analysis of AIF expression in LAGκ-1B tumors; format: in vivo, SCID mice; conditions: COMPOUND 1 1 mg/kg, bortezomib 0.5 mg/kg, alone or both; tumors excised post-treatment
Procedure: LAGκ-1B tumors were fixed in 4% paraformaldehyde and cut into 5 μm sections. Briefly, sections were blocked with Tris-buffered saline with 0.05% Tween-20 (TBST) and 3% BSA for 1 hour at room temperature and then incubated overnight with a rabbit antibody against AIF (Sigma, St. Louis, Mo.). The sections were washed three times with TBST and treated with horse radish […] anti-rabbit antibody (KPL, Gaithersburg, Md.) diluted 1:500 in TBST at room temperature for 2 hours. The slides were washed three times in TBST and placed in 3-amino-9-ethylcarbazole (AEC) buffer for 5 minutes, and color was detected using an AEC kit (Dako, Glostrup, Denmark). Staining was documented using an Olympus BX51 microscope (Olympus Imaging America Inc., Center Valley, Pa.) and analyzed by Microsuite Biological Suite program (Olympus BX51).

[9] = bortezomib 0.5 mg/kg IV, COMPOUND 1 1 mg/kg IV, alone or together

Structure (SMILES)	serum hIgG levels and tumor volume vs vehicle ([1]; melphalan 1 mg/kg IP weekly, COMPOUND 1 1 mg/kg IV twice weekly, 3 weeks)	cytotoxicity at 40 µM [2]	tumor volume ([3]; melphalan 3 mg/kg IP weekly, COMPOUND 1 1 mg/kg IV twice weekly, alone or together, three weeks)	serum hIgG levels and tumor volume vs vehicle ([1]; COMPOUND 1 1 mg/kg IV, bortezomib 0.5 mg/kg IV, twice weekly)	viability at 48 h, 9 nM [4]	cytotoxicity at 0.0005 µM [5]	proportion of cells in early apoptosis (PrI−/Annexin V+) [6]	days to tumor progression [3, 9]	survival longer than vehicle-treated mice [3, 9]	tumor growth vs vehicle ([3]; bortezomib 0.5 mg/kg IV, COMPOUND 1 1 mg/kg IV, alone or together, combination after 21 days P=0.0014)	drug-related / toxicity-related deaths ([3]; mouse, in vivo)	effect on growth of CD138-negative MM cells [7]	AIF expression vs vehicle-treated tumors [8]
N[C@@H](Cc1ccc(N(CCCl)CCCl)cc1)C(=O)O [melphalan, 4-[bis(2-chloroethyl)amino]-L-phenylalanine, reference compound]	no effect	~30%	partially inhibited										
CC(C)C[C@H](NC(=O)[C@H](Cc1ccccc1)NC(=O)c1cnccn1)B(O)O [bortezomib, [(1R)-3-methyl-1-({(2S)-3-phenyl-2-[(pyrazin-2-ylcarbonyl)amino]propanoyl}amino)butyl]boronic acid, reference compound]				only partially inhibited	~85%	~16%	17.5 % of cells	35 days	20%	only modestly suppresses	one death each	little effect	elevated AIF expression
